Experiments:
[1] = system: DERL-7 (IL-2 2.5 ng/mL); experiment: percent inhibition of viability; higher = more inhibition; details: 72 h
[2] = system: normal primary NK cells, pool 1 (3 donors), resting (IL-2 0 ng/mL); experiment: as above; details: 72 h
[3] = system: KHYG-1 (IL-2 2.5 ng/mL); experiment: as above; details: 72 h
[4] = system: normal primary NK cells, pool 2 (3 donors) (IL-2 2.5 ng/mL); experiment: as above; details: 72 h
[5] = system: normal primary NK cells, pool 3 (3 donors) (IL-2 2.5 ng/mL); experiment: as above; details: 72 h
[6] = system: NKL (IL-2 2.5 ng/mL); experiment: as above; details: 72 h
[7] = system: KAI3 (IL-2 2.5 ng/mL); experiment: as above; details: 72 h
[8] = system: normal primary NK cells, pool 1 (3 donors) (IL-2 2.5 ng/mL); experiment: as above; details: 72 h
[9] = system: SNK-6 (IL-2 2.5 ng/mL); experiment: as above; details: 72 h
[10] = system: NK-92 (IL-2 2.5 ng/mL); experiment: as above; details: 72 h
[11] = system: NK-YS (IL-2 2.5 ng/mL); experiment: as above; details: 72 h
[12] = system: YT (IL-2 2.5 ng/mL); experiment: as above; details: 72 h
[13] = system: IMC-1 (IL-2 20 ng/mL); experiment: as above; details: 72 h
[14] = system: DERL-7 (IL-2 2.5 ng/mL); experiment: drug sensitivity score (DSS) (DSS units); higher = more sensitive; extreme values may be limits of the assay; details: 72 h
[15] = system: normal primary NK cells, pool 1 (3 donors), resting (IL-2 0 ng/mL); experiment: as above; details: 72 h
[16] = system: KHYG-1 (IL-2 2.5 ng/mL); experiment: as above; details: 72 h
[17] = system: normal primary NK cells, pool 2 (3 donors) (IL-2 2.5 ng/mL); experiment: as above; details: 72 h
[18] = system: normal primary NK cells, pool 3 (3 donors) (IL-2 2.5 ng/mL); experiment: as above; details: 72 h
[19] = system: NKL (IL-2 2.5 ng/mL); experiment: as above; details: 72 h
[20] = system: KAI3 (IL-2 2.5 ng/mL); experiment: as above; details: 72 h
[21] = system: normal primary NK cells, pool 1 (3 donors) (IL-2 2.5 ng/mL); experiment: as above; details: 72 h
[22] = system: SNK-6 (IL-2 2.5 ng/mL); experiment: as above; details: 72 h
[23] = system: NK-92 (IL-2 2.5 ng/mL); experiment: as above; details: 72 h
[24] = system: NK-YS (IL-2 2.5 ng/mL); experiment: as above; details: 72 h
[25] = system: YT (IL-2 2.5 ng/mL); experiment: as above; details: 72 h
[26] = system: IMC-1 (IL-2 20 ng/mL); experiment: as above; details: 72 h
[27] = system: normal NK cells expanded with K562-aAPC; experiment: as above; details: 72 h; IL-2 2.5 ng/mL
Description: (§1)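 Drug sensitivity and resistance testing on K562-aAPC-expanded normal NK cells: 5 concentrations (10-fold steps over a 10,000-fold range), 72 h at 37 °C, viability by CellTiter-Glo normalised to DMSO and benzethonium chloride controls; DSS from the fitted curve.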

[28] = system: normal NK cells expanded with K562-aAPC; experiment: percent inhibition of viability; higher = more inhibition; details: 72 h, IL-2 2.5 ng/mL
Description: as §1

O=C(NOCC1CC1)c1ccc(F)c(F)c1Nc1ccc(I)cc1Cl (max concentration tested 10000 nM)
percent inhibition of viability [%]
Details | 1 nM | 10 nM | 100 nM | 1000 nM | 10000 nM
[1] | 2.61 | 5.1 | 12.3 | 29.5 | 78
[2] | -5.53 | 0.69 | 6.91 | 8.17 | 44.4
[3] | 2.03 | 1.47 | 16.1 | 39 | 82.4
[4] | -2.72 | -4.8 | -4.96 | 4.5 | 21
[5] | -3.37 | 0.57 | -3.93 | -0.21 | 13.6
[6] | 9.41 | 19 | 33.2 | 57.9 | 83.2
[7] | 15 | 14.8 | 26.2 | 27.5 | 80.7
[8] | -7.14 | -7.1 | 14.2 | 13 | 17.1
[9] | -8.27 | -11.4 | -27.2 | -19.6 | 97.3
[10] | 2.8 | 6.04 | -10.5 | -0.9 | 95.2
[11] | 3.04 | 1.78 | 6.53 | 13.3 | 59.9
[12] | 1.25 | 1.46 | 5.39 | 14.5 | 82.6
[13] | 2.83 | 1.66 | 4.76 | 7.54 | 65.8
[28] | -3.45 | -0.57 | -0.04 | 3.29 | 35.4

Details | drug sensitivity score
[14] | 7.6
[15] | 3.64
[16] | 9.71
[17] | 1.26
[18] | 0.13
[19] | 16.6
[20] | 11.1
[21] | 3.11
[22] | 4.38
[23] | 5.23
[24] | 5.39
[25] | 6.98
[26] | 4.87
[27] | 2.2

COc1cc2c(N3CCN(C(=O)Nc4ccc(OC(C)C)cc4)CC3)ncnc2cc1OCCCN1CCCCC1 [Tandutinib] (max concentration tested 1000 nM)
percent inhibition of viability [%]
Details | 0.1 nM | 1 nM | 10 nM | 100 nM | 1000 nM
[1] | 6.14 | 3.13 | 1.63 | 2.2 | -0.71
[2] | 6.87 | -8.83 | -1.76 | -7.72 | -7.9
[3] | 3.28 | 0.15 | 6.9 | 6.14 | 16.8
[4] | -9.1 | 2.32 | -0.09 | -2.34 | 4.26
[5] | -11.8 | -8.39 | -1.84 | -4.05 | -10.6
[6] | -15.4 | -9.75 | -9.72 | -2.92 | 7.53
[7] | -0.83 | 3.14 | 3.31 | 3.31 | 17.9
[8] | 3.36 | -11.3 | -7.24 | -22 | -12.1
[9] | 2.47 | -9.17 | 1.36 | -17.2 | -2.8
[10] | -7.68 | 0.56 | 17.9 | 8.5 | 19.1
[11] | 2.01 | 2.91 | 6.63 | 1.61 | 13.4
[12] | 1.06 | 0.08 | 6.39 | -0.96 | 9.65
[13] | -5.53 | -2.46 | 0.78 | 2.8 | 18.4
[28] | 0.5 | 4.31 | 2.45 | 1.29 | 8.72

Details | drug sensitivity score
[14] | 0
[15] | 0
[16] | 0.42
[17] | 0
[18] | 0
[19] | 0
[20] | 0.84
[21] | 0
[22] | 0
[23] | 4.33
[24] | 0
[25] | 0
[26] | 0.83
[27] | 0

CCC1=C[C@@H]2CN(C1)Cc1c([nH]c3ccccc13)[C@@](C(=O)OC)(c1cc3c(cc1OC)N(C)[C@H]1[C@@](O)(C(=O)OC)[C@H](OC(C)=O)[C@]4(CC)C=CCN5CC[C@]31[C@@H]54)C2 [Vinorelbine] (max concentration tested 10000 nM)
percent inhibition of viability [%]
Details | 1 nM | 10 nM | 100 nM | 1000 nM | 10000 nM
[1] | -3.93 | 85.2 | 98.5 | 98.5 | 100
[2] | -1.44 | -3.84 | -0.59 | 21.5 | 76.9
[3] | 2.76 | 57.8 | 97.2 | 103 | 105
[4] | -13.5 | 0.55 | 18.7 | 12.3 | 39.7
[5] | -16.2 | -7.94 | 14.5 | 19.8 | 32.1
[6] | 3.63 | 84.8 | 93.6 | 93.9 | 93.2
[7] | -0.08 | 44.9 | 58.9 | 70.4 | 70.2
[8] | -4.33 | -2.37 | -0.15 | 4.78 | 40.3
[9] | 22.5 | 78.3 | 84.4 | 96.7 | 96.5
[10] | -12.5 | 23.4 | 88.8 | 98.5 | 102
[11] | 10.7 | 66.4 | 64.9 | 84.2 | 90
[12] | 0.44 | 65.8 | 95.2 | 98.7 | 100
[13] | -0.83 | 99.3 | 99.7 | 100 | 101
[28] | 1.8 | 11.8 | 57.4 | 59.7 | 79

Details | drug sensitivity score
[14] | 40.4
[15] | 7.49
[16] | 37.3
[17] | 3.94
[18] | 4.42
[19] | 39.5
[20] | 27.1
[21] | 2.8
[22] | 40.6
[23] | 31.6
[24] | 33.5
[25] | 38.2
[26] | 42.8
[27] | 20.7

From the supplement of paper PMC5908809
